Laboratory results published in patent US20150181881A1, “METHODS FOR CONTROLLING FUNGAL DISEASES IN MUSHROOM PRODUCTION” (DSM IP ASSETS B.V., priority 2012, published 2015).

How the values were obtained:
Trichoderma harzianum = experiment: In vitro antifungal activity in 96-well microtiter plates against Trichoderma harzianum; format: cell-based
Method: Subsequently, 100 μl of a Verticillium fungicola suspension prepared in PCB medium is used to inoculate each well with 5.0×10^3 spores/ml.
, the in vitro antifungal activity (%) of the individual active ingredients was assessed by calculating the reduction in mould growth observed in the presence of the active ingredient in comparison to the mould growth observed in the absence of the active ingredient. The expected antifungal activity (E in %) of the active ingredient combination was calculated according to the Colby equation (Colby, 1967): […]
wherein X and Y are the observed antifungal activities (in %) of the individual active ingredients X and Y, respectively. If the observed antifungal activity (O in %) of the combination exceeds the expected antifungal activity (E in %) of the combination and the resulting synergy factor O/E is thus >1.0, the combined application of the active ingredients leads to a synergistic antifungal effect.
Furthermore, Trichoderma harzianum was used for inoculation.

Verticillium fungicola = experiment: In vitro antifungal activity in 96-well microtiter plates against Verticillium fungicola; format: cell-based
Method: The following compositions are tested: • Control (no active ingredient), • 1.25 or 2.5 ppm natamycin (DSM Food Specialties, Delft, The Netherlands), • 0.5 ppm chlorothalonil, • 1.25 ppm natamycin+0.5 ppm chlorothalonil, • 2.5 ppm natamycin+0.5 ppm chlorothalonil. […] Subsequently, 100 μl of a Verticillium fungicola suspension prepared in PCB medium is used to inoculate each well with 5.0×10^3 spores/ml. […] After incubation of the microtiter plates for 3 and 5 days at 25° C., the in vitro antifungal activity (%) of the individual active ingredients was assessed by calculating the reduction in mould growth observed in the presence of the active ingredient in comparison to the mould growth observed in the absence of the active ingredient. The expected antifungal activity (E in %) of the active ingredient combination was calculated according to the Colby equation (Colby, 1967): […] wherein X and Y are the observed antifungal activities (in %) of the individual active ingredients X and Y, respectively.

[1] = Chlorothalonil 0.5 ppm, incubation 5 days at 25° C.

Measured: Observed antifungal activity O (%)

N#Cc1c(Cl)c(Cl)c(Cl)c(C#N)c1Cl [Chlorothalonil, 2,4,5,6-tetrachloroisophthalonitrile]
0%: Trichoderma harzianum; [1] | Trichoderma harzianum; Chlorothalonil 1.0 ppm, incubation 10 days at 25° C. | Trichoderma harzianum; Chlorothalonil 1.0 ppm, incubation 17 days at 25° C. | Trichoderma harzianum; Chlorothalonil 1.5 ppm, incubation 17 days at 25° C. | Verticillium fungicola; Chlorothalonil 0.5 ppm, incubation 3 days at 25° C. | Verticillium fungicola; [1]

C[C@@H]1C/C=C/C=C/C=C/C=C/[C@H](O[C@@H]2O[C@H](C)[C@@H](O)[C@H](N)[C@@H]2O)C[C@@H]2O[C@](O)(C[C@@H](O)C[C@H]3O[C@@H]3/C=C/C(=O)O1)C[C@H](O)[C@H]2C(=O)O [Natamycin, natamycin]
0%: Trichoderma harzianum; Natamycin 1.25 ppm, incubation 5 days at 25° C. | Trichoderma harzianum; Natamycin 1.25 ppm, incubation 10 days at 25° C. | Trichoderma harzianum; Natamycin 1.25 ppm, incubation 17 days at 25° C. | Trichoderma harzianum; Natamycin 2.5 ppm, incubation 17 days at 25° C. | Verticillium fungicola; Natamycin 1.25 ppm, incubation 3 days at 25° C. | Verticillium fungicola; Natamycin 2.5 ppm, incubation 5 days at 25° C.
